The results in this text go back to publication PMC3253915 (Molecular Genetics and Metabolism, 2011).

The target of this experiment is human GALK (Homo sapiens, UniProt P51570). Briefly: GALK inhibition in vitro. It counts as biochemical. To be noted: unpublished data.
Sequence of human GALK (P51570 whole entry): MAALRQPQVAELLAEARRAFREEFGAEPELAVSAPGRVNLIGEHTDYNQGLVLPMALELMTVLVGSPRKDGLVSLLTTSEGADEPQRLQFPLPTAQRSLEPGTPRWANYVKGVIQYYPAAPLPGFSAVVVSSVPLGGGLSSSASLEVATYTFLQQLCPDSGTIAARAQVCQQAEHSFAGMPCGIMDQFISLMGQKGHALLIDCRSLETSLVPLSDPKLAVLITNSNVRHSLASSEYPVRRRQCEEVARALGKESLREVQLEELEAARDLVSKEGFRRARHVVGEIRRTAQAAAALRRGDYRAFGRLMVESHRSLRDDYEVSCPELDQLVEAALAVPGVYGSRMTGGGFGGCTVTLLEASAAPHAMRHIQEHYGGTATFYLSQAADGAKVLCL

Turning to `O=C(CO)[C@@H](O)[C@H](O)[C@H](O)CO` [fructose], the GALK inhibition result (at low millimolar (mM) range) is reported as “no inhibition”.
Take `O=CC[C@@H](O)[C@@H](O)[C@H](O)CO` [2-deoxygalactose]: where the note is “galactose derivative”, the GALK inhibition entry is “did not result in GALK inhibition”.
For the compound `OC[C@H]1OC(O)[C@H](O)[C@@H](O)[C@@H]1O` (stereo partly drawn) [glucose], for the setting “at low millimolar (mM) range”, the GALK inhibition entry was “no inhibition”.
